Columns and labels:
[1] = target: T1, human vitamin D binding protein (hDBP) (Homo sapiens, UniProt P02774); test: Affinity for human vitamin D binding protein; details: hDBP 0.18 μM, 4° C. 3 hours; 1,25(OH)2D3 = 100
T1 sequence (P02774 17-474): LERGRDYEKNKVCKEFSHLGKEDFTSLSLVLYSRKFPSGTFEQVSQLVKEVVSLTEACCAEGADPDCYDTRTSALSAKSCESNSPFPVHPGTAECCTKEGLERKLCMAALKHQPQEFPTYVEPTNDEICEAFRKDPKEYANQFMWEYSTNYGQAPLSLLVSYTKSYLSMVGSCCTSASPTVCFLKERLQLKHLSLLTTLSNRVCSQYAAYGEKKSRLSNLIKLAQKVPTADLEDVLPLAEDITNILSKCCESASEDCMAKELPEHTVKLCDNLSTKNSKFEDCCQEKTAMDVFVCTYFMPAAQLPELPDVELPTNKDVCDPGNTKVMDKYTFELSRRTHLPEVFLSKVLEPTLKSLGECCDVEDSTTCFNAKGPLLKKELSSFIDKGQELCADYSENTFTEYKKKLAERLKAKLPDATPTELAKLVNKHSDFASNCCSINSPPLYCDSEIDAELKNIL
Protocol: Binding of 1α,25(OH)2D3 analogues to hDBP was performed at 4° C. […] Phase separation was then obtained by the addition of 0.5 ml of cold dextran-coated charcoal.

NMRI mice = test: In vivo activity: serum and femur calcium after 7 daily i.p. injections; details: dose 0.2 μg/kg/d i.p., 7 days; * in cell = P < 0.05
Protocol: Eight weeks old, male NMRI mice were fed a vitamin D-replete diet (0.2% calcium, 1% phosphate, 2000 U vitamin D/kg; Hope Farms, Woerden, The Netherlands). Groups of six mice were intraperitoneally injected daily during 7 consecutive days with different doses of 1,25(OH)2D3 (0.2 and 0.4 μg/kg/day) or analogues. The control group was injected with vehicle (arachis oil). The average weight of each group of 6 mice was determined at the beginning and at the end of the experiment. The following parameters were evaluated: serum calcium and femur calcium. Serum calcium was measured by a microcolorimetric assay (Sigma, St. Louis, Mo.). Femurs were removed and femur calcium content was measured in HCl-dissolved bone ash (obtained by heating for 24 hours in an oven at 100° C.), using the same technique as for serum calcium. Student's t-tests were carried out to detect significant differences; p<0.05 was accepted as significant. […]

[2] = system: normal (no surgery) C3H female mice; test: Oral gavage versus i.p. in normal (no surgery) mice, 5 weeks; type: in vivo; details: for BMC total body, SHAM + vitaminD analogue vs. SHAM + vehicle (= 100%) in % / BMD spine, SHAM + vitaminD analogue vs. SHAM + vehicle (= 100%) in % / BMD total body, SHAM + vitaminD analogue vs. SHAM + vehicle (= 100%) in %: DEXA, 5 weeks, increase (↑)
Protocol: Besides injecting the compound MV2 intraperitoneally (results in table 3), it was also given orally by gavage in normal (no surgery) C3H female mice and the biological effects were investigated as described before. MV2 given orally at a dose of 1 μg/kg/2days (3 times per week) during 5 weeks was as effective as intraperitoneal injections at a dose of 0.5 μg/kg/2 days (4 times per week) during 5 weeks in C3H mice (Table 4).

[3] = system: OVX or SHAM C3H female mice; test: Restoration of bone loss in ovariectomized mice, oral treatment started 3 weeks after surgery; type: in vivo; details: 8 weeks
Protocol: 12-week-old C3H female mice were subjected to bilateral ovariectomy (OVX) or sham surgery SHAM (time point −3). The OVX and SHAM animals were treated with the vitamin D analogue MV2 (1 μg/kg three times per week) or vehicle (arachis oil) by oral gavage. Dosing was started 3 weeks after surgery (time point 0) and was continued for 8 weeks (time point 8). The number of mice per group is 8 to 10.
Before the surgery and 3 weeks after ovariectomy in vivo, measurements were performed in order to determine bone mineral density (BMD), bone mineral content (BMC) of total body and spine by DEXA. Before the surgery and 3 weeks after ovariectomy, serum was collected to measure calcium levels by a standard […] method (Synchron CX4, Beckman Instruments, USA). The animals were weighted regularly during the experimental period to monitor their overall health and well being. After 4 weeks treatment, serum was again collected and biochemical parameters were determined. At the end of the experiment (8 weeks of treatment) bone mineral density (BMD) and bone mineral content (BMC) of total body and spine were measured by DEXA and serum was collected to determine serum calcium levels. […] Tibiae were used for histomorphometric analysis, and femurs for measurement of cortical and trabecular volumetric density and geometry by peripheral quantitative computed tomography (PQCT) ex vivo. […]

[4] = 0.5 μg/kg/2 days i.p. 4 times per week
[5] = 1 μg/kg/2 days orally 3 times per week

DBP (relative affinity) [1]: 7%
Serum calcium vs. control (%) (NMRI mice): 97%
serum calcium levels ([2]; analogue treated mice, 5 weeks (control mice 11.43±0.78)): 11.36 ± 0.56 mg/dL
hypercalcemic effects (serum calcium) ([3]; 1 pg/kg three times per week (so in the source)): no hypercalcemic effects
Compound: C[C@H](CC#CC(O)(C(F)(F)F)C(F)(F)F)[C@@]1(C)CC[C@@H](/C=C/C=C2C[C@@H](O)C[C@H](O)C2)C1(C)C [MV2, (1R,3R)-5-((E)-3-((1S,3R)-3-((1R)-6,6,6-trifluoro-5-hydroxy-1-methyl-5-trifluoromethyl-3-hexynyl)-2,2,3-trimethylcyclopentyl)-2-propenylidene)cyclohexane-1,3-diol]
femur calcium vs. control (%) (NMRI mice): 112* %
BMC total body, SHAM + vitaminD analogue vs. SHAM + vehicle (= 100%) in % [2, 4]: 7 ↑ %
BMD spine, SHAM + vitaminD analogue vs. SHAM + vehicle (= 100%) in % [2, 4]: 9 ↑ %
BMD total body, SHAM + vitaminD analogue vs. SHAM + vehicle (= 100%) in % [2, 4]: 4 ↑ %
BMC total body, SHAM + vitaminD analogue vs. SHAM + vehicle (= 100%) in % [2, 5]: 10 ↑ %
BMD spine, SHAM + vitaminD analogue vs. SHAM + vehicle (= 100%) in % [2, 5]: 14 ↑ %
BMD total body, SHAM + vitaminD analogue vs. SHAM + vehicle (= 100%) in % [2, 5]: 5 ↑ %
body weight during treatment ([3]; 1 μg/kg p.o. three times per week): no animals lost weight

— patent publication US7704986B2, “Vitamin D3 analogues for the prevention and treatment of bone disorders” (K.U. Leuven Research and Development, priority 2004, dated 2010)
